The record followed here is ChEMBL document CHEMBL1154817, “Tartrolon D, a cytotoxic macrodiolide from the marine-derived actinomycete Streptomyces sp. MDG-04-17-069” (J Nat Prod, 2009).

For orientation: GI50 means the concentration that inhibits growth by half. A word on the LC50: it is the concentration lethal to half of the exposed cells or organisms. The low end stands for a more lethal substance, the high end for a less lethal substance. A word on the TGI: it is the concentration giving total growth inhibition. Lower therefore signals more potent growth arrest. Usually IC50 stands for the concentration at which inhibition is half-maximal.

≈ marks a conversion by molar mass, not a printed value.

One assay relates to A549. Description: Cytotoxicity against human A549 cells after 72 hrs by sulforhodamine B assay. Format: functional. The conditions noted are these: A549, 72 h.
The test system of another assay is HT-29. Description: Cytotoxicity against human HT-29 cells after 72 hrs by sulforhodamine B assay. Format: functional. The conditions noted are these: HT-29, 72 h. (In general: The SRB assay estimates cell density from bound dye.)
In a further assay the test system is MDA-MB-231. The assay is described as follows: Cytotoxicity against human MDA-MB-231 cells after 72 hrs by sulforhodamine B assay. The format is functional. Particulars: MDA-MB-231, 72 h.
The next assay relates to L929. The assay is described as follows: Cytotoxicity against mouse L929 cells. The format is functional.
Assay [1] can be described thus: Inhibition of hypoxia-induced HIF1 transcriptional activity.

In the assay with A549, `C[C@@H]1CC[C@H]2CC(=O)C[C@@H](O)CC/C=C/C=C\CC[C@H](C)OC(=O)C(O)[C@]3(O)O[C@@H](CC[C@H]3C)CC(=O)C[C@@H](O)CC/C=C/C=C\CC[C@H](C)OC(=O)C(O)[C@]1(O)O2` (some centres not stated) [TARTROLON D] showed a 50% growth inhibitory concentration (GI50) of 160 nM, a median lethal concentration (LC50) of 8050 nM and a TGI of 1460 nM. For the same molecule, in the assay with HT-29, the concentration for 50% growth inhibition (GI50) turned out to be 310 nM, the LC50 (concentration killing 50% of cells) is 8410 nM and the concentration for total growth inhibition (TGI) worked out at 1710 nM. In the assay on MDA-MB-231, this molecule displayed a 50% growth inhibitory concentration (GI50) of 790 nM, an LC50 (50% lethal concentration) of 11000 nM and a TGI of 3410 nM.

As to `COc1cccc2c1C(=O)c1c(O)c3c(c(O)c1C2=O)C[C@@](O)(C(C)=O)C[C@@H]3O[C@H]1C[C@H](N)[C@H](O)[C@H](C)O1` [DAUNORUBICIN], the GI50 was determined as 80 nM in the assay on A549, 70 nM with HT-29 and 20 nM with MDA-MB-231. In addition, the concentration for total growth inhibition (TGI) in the assay with A549 was determined as 170 nM; in the assay on HT-29, 330 nM; in the assay with MDA-MB-231, 120 nM.

The molecule `C[C@@H]1C(=O)C[C@@H](O)CC/C=C/C=C\CC[C@H](C)OC(=O)C(O)[C@]2(O)O[C@@H](CC[C@H]2C)[C@H](C)C(=O)C[C@@H](O)CC/C=C/C=C\CC[C@H](C)OC(=O)C(O)[C@]2(O)O[C@H]1CC[C@H]2C` (some centres not stated) [TARTROLON A] gave an MIC in the assay on L929 of 70 µg/mL (≈ 82.4 µM).

`C[C@@H]1C(=O)C[C@@H](O)CC/C=C/C=C\CC[C@H](C)OC(=O)[C@@H]2O[B-]34O[C@@H](C(=O)O[C@@H](C)CC/C=C\C=C\CC[C@H](O)CC(=O)[C@@H](C)[C@@H]5CC[C@](C)(O)[C@]2(O5)O3)[C@@]2(O[C@H]1CC[C@]2(C)O)O4` [TARTROLON C] gave a concentration for half-maximal inhibition (IC50) in assay [1] of 0.17 µg/mL.
